Reference: patent US20060263453A1, “Methods and compositions for modulating glutamate dehydrogenase” (priority 2004, published 2006)

Columns and labels:
[1] = test system: islets; experiment: [U-14C]-glutamine oxidation in islets; type: cell-based, rat
Description: In a first experiment, a batch of 100 islets were incubated with glucose-free Krebs-Ringer bicarbonate buffer, as described herein, containing 20 μM EGCG or 20 μM EGC and 2 mM glutamine for 60 minutes. The islets were then incubated in the presence of varying concentrations of BCH (shown in FIG. 7A) for 60 minutes, and for an additional 60 minutes in the presence of 2 mCi [U-^14C]-glutamine (NEN-Life Science Products, UK). Next, [U-^14C]-glutamine oxidation in the incubated islets was measured. A trap filter was placed in each tightly sealed glass tube of the perifusion apparatus to collect the ^14CO2 produced by the islets, and the amount of radioactivity was determined by liquid scintillation counting. The results are summarized in FIG. 7A, and are presented as means±S.E. from 4 separate experiments. […] The islets were then incubated in the presence of 10 mM BCH (or no BCH—to measure “baseline” glutamine oxidation levels) for 60 minutes. The islets were then incubated for an additional 60 minutes in the presence of 2 mCi [U-^14C]-glutamine (NEN-Life Science Products, UK). Next, [U-^14C]-glutamine oxidation in the incubated islets was measured, as described above.

[2] = target: T1, Bovine GDH (bGDH) (Bos taurus, UniProt P00366); experiment: reductive amination reaction catalyzed by bovine GDH (NADH absorbance at 340 nm); type: biochemical; details: FIG. 1A
T1 construct: purchased Sigma Aldrich Chemical Company (St. Louis, Mo.)
T1 sequence (P00366 58-558): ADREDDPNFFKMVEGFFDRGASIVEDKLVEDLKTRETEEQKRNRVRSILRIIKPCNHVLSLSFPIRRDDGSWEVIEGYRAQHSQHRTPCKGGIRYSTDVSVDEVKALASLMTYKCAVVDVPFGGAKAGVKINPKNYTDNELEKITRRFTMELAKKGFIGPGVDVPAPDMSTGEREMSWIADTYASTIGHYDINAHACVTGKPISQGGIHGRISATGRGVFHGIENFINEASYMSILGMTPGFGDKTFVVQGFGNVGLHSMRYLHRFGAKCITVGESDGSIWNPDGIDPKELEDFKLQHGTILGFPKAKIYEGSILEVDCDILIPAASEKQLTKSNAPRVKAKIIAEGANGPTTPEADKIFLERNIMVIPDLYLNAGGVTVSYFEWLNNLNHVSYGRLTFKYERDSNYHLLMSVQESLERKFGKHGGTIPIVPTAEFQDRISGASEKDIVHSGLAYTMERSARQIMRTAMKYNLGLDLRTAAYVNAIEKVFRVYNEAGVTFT
Description: In this Example, the effects of epigallocatechin gallate (EGCG), epigallocatechin (EGC), epicatechin gallate (ECG), and epicatechin (EC) from Camellia sinensis on GDH activity were tested. Bovine GDH (bGDH) was used in this Example, which was obtained as an aqueous (NH4)2SO4 suspension from Sigma Aldrich Chemical Company (St. Louis, Mo.).
First, aliquots of GDH were extensively dialyzed against 0.1M sodium phosphate buffer, pH 7.0, which contained 1 mM ethylenediaminetetraacetic acid (EDTA). The enzyme concentrations were adjusted to 1 mg/ml and the amount of enzyme added to the reaction mixture, for kinetic analysis, was adjusted to yield optimal steady state velocity measurements. All solutions were made immediately prior to use. Enzyme assays were performed by monitoring reduced coenzyme absorbance at 340 nm using a Shimadzu UV-1601 spectrophotometer. The reductive amination reactions were performed in 3 mL volumes at pH 7.0 in the presence of 0.1 mM nicotinamide adenine dinucleotide (NADH), 50 mM NH4Cl, and 5 mM 2-oxoglutarate. The rate of NADH oxidation was calculated using an extinction coefficient of 6.22 mM^−1 cm^−1.

[3] = test system: rat islets; experiment: BCH-stimulated insulin secretion and oxygen consumption in perifused islets; type: cell-based, Wistar rat; details: 20 μM
Description: In this Example, the effects of EGCG and EGC on LSIS were measured, while simultaneously monitoring respiration rates. More particularly, the effects of EGCG (20 μM) and EGC (20 μM) on BCH-stimulated insulin secretion were measured. First, 1000 adult male Wistar rat islets were isolated as described above and were cultured on a glass perfusion chamber in 10 mM glucose for 3 days. Next, the islets were perifused in an oxygen consumption measurement apparatus containing BCH, along with 0 μM EGCG and 0 μM EGC, 20 μM EGCG, or 20 μM EGC. The perifusion apparatus used in these Examples consisted of a peristaltic pump, a water bath (37° C.), a gas exchanger (artificial lung: media flowed through the thin-walled silastic tubing loosely coiled in a glass jar that contained 20% O2 and 5% CO2 balanced with N2), and fraction collector. All transfer lines were insulated. After the system was provided with 20 μM EGCG or 20 μM EGC, oxygen partial pressure was recorded every 10 seconds by phosphorescence lifetimes of an oxygen-sensitive porphyrin (palladium-mesotetra; 4-carboxyphenyl porphyrin dendrimer). The dye molecules were excited with pulses at 524 nm from a UV lead and emission was measured at 690 nm. The inflow oxygen tension was measured in the absence of islets in the chamber before and after each experiment. The perifusate was a Krebs buffer (pH 7.4) containing 2.2 mM Ca^2+, 1% bovine serum albumin equilibrated with 20% O2 and 5% CO2 balanced with N2. The flow rate was […] and samples were collected every 2 minutes for insulin measurements by radioimmunoassay. The results are summarized in FIG. 6, and are presented as means±S.E. for 1000 islets from 3 separate experiments for EGCG (and from 1 experiment for EGC). Due to the high density of data, S.E. is only shown in every 20 samples.

[4] = test system: rat islets; experiment: glucose stimulated insulin secretion in 120 minute run-down islets; type: cell-based
Description: Under brief “run-down” conditions used for the above GSIS analysis, where glucose was removed from the cells for only […], the levels of high-energy metabolites (i.e., GTP and ATP) have not been depleted and these effectively shut down GDH activity. This, in turn, eliminated any effect GDH might have on insulin secretion. Therefore, the effects of EGCG were also tested on […] that had been “run-down” for a longer period of time (120 minutes) prior to glucose stimulation (FIG. 11). Specifically, isolated rat islets were cultured with 10 mM glucose for 3 days and then perifused in the absence of glucose and in the presence of 0 or 20 μM EGCG (or 20 μM EGC) for “run-down” periods of 120 minutes prior to stimulation with a glucose ramp (0 to 25 mM, 0.5 mM/minute). Finally, islets were exposed to 30 mM KCl. The insert highlighted the insulin secretion from time=120 minutes to 140 minutes.

[5] = test system: rat islets; experiment: glucose stimulated insulin secretion (GSIS), short run-down (50 minutes), glucose ramp; type: cell-based; details: 20 μM, FIGS. 8A and 8B
Description: In this Example, the effect of EGCG on glucose stimulated insulin secretion (GSIS) was examined. Isolated rat islets were cultured with 20 mM glucose (FIG. 8A) and 10 mM glucose (FIG. 8B) for 3 days, then perifused in the absence of glucose for 50 minutes and in the presence of 0 μM EGCG; 20 μM EGCG; or 20 μM EGC. Next, the islets were stimulated by a glucose ramp (0 to 25 mM, 0.5 mM/minute). Finally, the islets were exposed to 30 mM KCl. Insulin levels were measured every minute by radioimmunoassay. The results shown in FIG. 8A are presented as means±S.E. for 100 islets from 3 separate experiments (and means±S.E. for 100 islets from 1 experiment for FIG. 8B).

[6] = ethanol, DMSO, dimethyl formamide; cited from earlier work

Question: For `[N-]=[N+]=CC(=O)CC[C@H](N)C(=O)O` [DON, 6-diazo-5-oxo-L-norleucine, reference compound], which “effect on 10 mM BCH-stimulated glutamine oxidation” value ([1]; 3 mM glutamine, FIG. 7B, 7C) is on record?
Answer: Its value is “blocks glutaminolysis to levels lower than the unstimulated β-cells at high concentrations”.

Question: What does the source list for `Oc1cc(O)c2c(c1)O[C@H](c1cc(O)c(O)c(O)c1)[C@H](O)C2` [EGC, epigallocatechin, reference compound]?
Answer: potent inhibitor of GDH activity [2]: not; sensitization of the β-cells to BCH [3]: slight sensitization; effect on LSIS (BCH-induced insulin secretion) ([3]; FIG. 6A): did not cause significant inhibition; effect on BCH-induced increase in respiration rates ([3]; FIG. 6B): nor did it have as strong of an effect on respiration as compared to EGCG; potentiation of GSIS ([4]; 20 μM, 120 minute run-down, FIG. 11): not; effect on KCl-stimulated release of insulin ([4]; 30 mM KCl): neither EGCG or EGC affected; sensitization of the cells at low glucose concentrations ([4]; FIG. 11, inset): slightly sensitize; effect on GSIS [5]: neither EGC nor EGCG affected; block of BCH stimulation of glutaminolysis (glutamine oxidation) ([1]; 20 μM, 2 mM glutamine, FIG. 7A): not

Question: For `NC1(C(=O)O)CC2CCC1C2` (stereo not drawn) [BCH, beta-2-aminobicyclo[2.2.1]heptane-2-carboxylic acid, reference compound], which “stimulation of glutamine oxidation” value ([1]; 100 islets, 2 mM glutamine, FIG. 7A) is on record?
Answer: Its value is “dose-dependently stimulated”.

Question: For `O=C(O[C@@H]1Cc2c(O)cc(O)cc2O[C@@H]1c1ccc(O)c(O)c1)c1cc(O)c(O)c(O)c1` [ECG, (2R,3R)-2-(3,4-Dihydroxyphenyl)-3,4-dihydro-1 (2H)-benzopyran-3,5,7-triol 3-(3,4,5-trihydroxybenzoate)], which “potent inhibitor of GDH activity” value [2] is on record?
Answer: The value was “potent inhibitors”.

Question: And the “soluble in organic solvents” value [6]?
Answer: Its value is “soluble”.
